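96-well plates; 48 h exposure; 5 concentrations. Endpoints by linear interpolation between flanking doses. Not reached: highest tested concentration assigned. Abbreviation: GI50, concentration required for 50% inhibition of growth.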 Calls of active or inactive are those of the source. Rule as the data show it: active = GI50 up to about 1.1 µM and inactive = higher.
Legend:
Test in all cases: growth of human tumour cells (NCI), 48 h
HOP-92 = system: HOP-92
LOX IMVI = system: LOX IMVI
SK-MEL-28 = system: SK-MEL-28
SNB-19 = system: SNB-19
HCT-116 = system: HCT-116
SF-268 = system: SF-268
A549 = system: A549
HOP-62 = system: HOP-62
TK-10 = system: TK-10
LXFL 529 = system: LXFL 529
EKVX = system: EKVX
OVCAR-5 = system: OVCAR-5
DLD-1 = system: DLD-1
UO-31 = system: UO-31
UACC-257 = system: UACC-257
DMS-114 = system: DMS-114
RXF 631 = system: RXF 631
KM12 = system: KM12
RPMI-8226 = system: RPMI-8226
SF-539 = system: SF-539
DMS-273 = system: DMS-273
Malme-3M = system: Malme-3M
HCC 2998 = system: HCC 2998
COLO 205 = system: COLO 205
SK-MEL-5 = system: SK-MEL-5
NCI-H522 = system: NCI-H522
SNB-78 = system: SNB-78
HT-29 = system: HT-29
CCRF-CEM = system: CCRF-CEM
786-0 = system: 786-0
SF-295 = system: SF-295
OVCAR-3 = system: OVCAR-3
K562 = system: K562
KM-20L2 = system: KM-20L2
MOLT-4 = system: MOLT-4
NCI-H460 = system: NCI-H460
IGROV-1 = system: IGROV-1
HL-60 = system: HL-60
RXF 393 = system: RXF 393
XF498 = system: XF498
SW-620 = system: SW-620
OVCAR-8 = system: OVCAR-8
A498 = system: A498
SK-MEL-2 = system: SK-MEL-2
M19-MEL = system: M19-MEL
SK-OV-3 = system: SK-OV-3
SNB-75 = system: SNB-75
NCI-H23 = system: NCI-H23
HOP-18 = system: HOP-18
ACHN = system: ACHN
U-251 = system: U-251
OVCAR-4 = system: OVCAR-4
NCI-H226 = system: NCI-H226
UACC-62 = system: UACC-62
HCT-15 = system: HCT-15
M14 = system: M14
CAKI-1 = system: CAKI-1
SN12C = system: SN12C

Measured: GI50

Cn1ccc(=NS(=O)(=O)c2ccccc2)cc1
inactive: HOP-92 > 100 µM | LOX IMVI > 100 µM | SK-MEL-28 > 100 µM | SNB-19 > 100 µM | HCT-116 > 100 µM | SF-268 > 100 µM | A549 > 100 µM | HOP-62 > 100 µM | TK-10 > 100 µM | LXFL 529 > 100 µM | EKVX > 100 µM | OVCAR-5 > 100 µM | DLD-1 > 100 µM | UO-31 > 100 µM | UACC-257 > 100 µM | DMS-114 > 100 µM | RXF 631 > 100 µM | KM12 > 100 µM | RPMI-8226 > 100 µM | SF-539 > 100 µM | DMS-273 > 100 µM | Malme-3M > 100 µM | HCC 2998 > 100 µM | COLO 205 > 100 µM | SK-MEL-5 > 100 µM | NCI-H522 > 100 µM | SNB-78 > 100 µM | HT-29 > 100 µM | CCRF-CEM > 100 µM | 786-0 > 100 µM | SF-295 > 100 µM | OVCAR-3 > 100 µM | K562 > 100 µM | KM-20L2 > 100 µM | MOLT-4 > 100 µM | NCI-H460 > 100 µM | IGROV-1 > 100 µM | HL-60 > 100 µM | RXF 393 > 100 µM | XF498 > 100 µM | SW-620 > 100 µM | OVCAR-8 > 100 µM | A498 > 100 µM | SK-MEL-2 > 100 µM | M19-MEL > 100 µM | SK-OV-3 > 100 µM | SNB-75 > 100 µM | NCI-H23 > 100 µM | HOP-18 85.3 µM | ACHN > 100 µM | U-251 > 100 µM

Nc1cc[nH]c(=O)n1
inactive: HOP-92 > 100 µM | LOX IMVI > 100 µM | SK-MEL-28 > 100 µM | HCT-116 > 100 µM | OVCAR-4 > 100 µM | SF-268 > 100 µM | A549 > 100 µM | HOP-62 > 100 µM | TK-10 > 100 µM | NCI-H226 > 100 µM | LXFL 529 > 100 µM | EKVX > 100 µM | OVCAR-5 > 100 µM | DLD-1 > 100 µM | UO-31 > 100 µM | UACC-257 > 100 µM | UACC-62 > 100 µM | DMS-114 > 100 µM | RXF 631 > 100 µM | KM12 > 100 µM | RPMI-8226 > 100 µM | SF-539 > 100 µM | DMS-273 > 100 µM | Malme-3M > 100 µM | COLO 205 > 100 µM | SK-MEL-5 > 100 µM | NCI-H522 > 100 µM | SNB-78 > 100 µM | HT-29 > 100 µM | CCRF-CEM > 100 µM | 786-0 > 100 µM | SF-295 > 100 µM | OVCAR-3 > 100 µM | K562 > 100 µM | KM-20L2 > 100 µM | NCI-H460 > 100 µM | IGROV-1 > 100 µM | HL-60 > 100 µM | RXF 393 > 100 µM | XF498 > 100 µM | M14 > 100 µM | CAKI-1 > 100 µM | SW-620 > 100 µM | OVCAR-8 > 100 µM | A498 > 100 µM | SK-MEL-2 > 100 µM | M19-MEL > 100 µM | SN12C > 100 µM | SK-OV-3 > 100 µM | SNB-75 > 100 µM | HOP-18 > 100 µM | ACHN > 100 µM | U-251 > 100 µM
> 100 µM: HCT-15

c1ccc2c(c1)[nH]c1c2ncc2[nH]c3ccccc3c21
inactive: HOP-92 2.57 µM | LOX IMVI 1.94 µM | SK-MEL-28 11.7 µM | SNB-19 2.94 µM | HCT-116 1.77 µM | OVCAR-4 1.9 µM | SF-268 6.32 µM | A549 4.65 µM | HOP-62 4.31 µM | TK-10 7.33 µM | NCI-H226 14 µM | LXFL 529 3.64 µM | EKVX 12.9 µM | OVCAR-5 10.9 µM | DLD-1 3.44 µM | UO-31 4.05 µM | UACC-257 > 10 µM | UACC-62 1.76 µM | DMS-114 2.44 µM | RXF 631 2.16 µM | KM12 3.06 µM | RPMI-8226 2.26 µM | SF-539 2.61 µM | DMS-273 2.45 µM | Malme-3M 19.4 µM | HCC 2998 2.64 µM | COLO 205 2.45 µM | SK-MEL-5 5.48 µM | NCI-H522 4.74 µM | SNB-78 4.95 µM | HT-29 2.88 µM | CCRF-CEM 3.03 µM | 786-0 2.32 µM | SF-295 3.58 µM | OVCAR-3 2.54 µM | K562 2.55 µM | KM-20L2 3.71 µM | MOLT-4 3.05 µM | NCI-H460 2.13 µM | IGROV-1 5.19 µM | HL-60 2 µM | XF498 1.78 µM | M14 2.75 µM | CAKI-1 3.73 µM | SW-620 2.9 µM | OVCAR-8 3.23 µM | A498 2.72 µM | SK-MEL-2 7.29 µM | M19-MEL 5.35 µM | SN12C 3.51 µM | SK-OV-3 14.1 µM | SNB-75 3.52 µM | NCI-H23 10.4 µM | HOP-18 2.88 µM | ACHN 4.24 µM | U-251 2.43 µM
2.25 µM: HCT-15
